Earlier results, collected in US20180133147A1, “Drug Delivery Systems” (Novartis AG, priority 2013, published 2018).
Like-named read-outs stand apart in the source and are kept apart here.

## vapreotide pamoate
PBS pH 7.4
  solubility in phosphate buffer saline: 0.02 to 0.04 mg/mL

## octreotide pamoate
25° C.
  solubility in water: 0.2 mg/mL

## pasireotide pamoate
  solubility in water: 0.02 mg/mL
